Test results reported in article PMC12627627 (Nature Communications, 2025).

Tests used:
Type in all cases: binding
R12 domain of RyR1 = biological target: T1, R12 domain of RyR1 (Homo sapiens, UniProt P21817); assay: ITC, R12 domain of RyR1; details: AMP-PCP or ADP alone, without DAN/AZU (Supplementary Fig. 1)
T1 construct: RyR1 854–1054, RyR2 865–1065, RyR3 853–1053; made in house; host or cells: E. coli BL21 (DE3)
T1 sequence (P21817 854-1054): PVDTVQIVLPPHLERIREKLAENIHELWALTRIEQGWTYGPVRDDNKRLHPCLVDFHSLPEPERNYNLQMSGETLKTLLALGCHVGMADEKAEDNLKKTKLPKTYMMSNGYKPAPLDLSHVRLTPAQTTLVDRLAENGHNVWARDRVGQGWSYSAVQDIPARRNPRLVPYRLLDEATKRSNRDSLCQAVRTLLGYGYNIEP
Description: (§1) The plasmids were subsequently transformed into E. coli BL21 (DE3) cells (NEB, USA) and cultured in Luria-Bertani (LB) media at 37 °C. Protein expression was induced with 0.4 mM isopropyl β-D-thiogalactoside (IPTG) when the optical density (OD)600 reached ~0.8, followed by incubation at 18 °C for 12 h. The cells were harvested via centrifugation at 5,000 × g for 15 min at 4 °C and homogenized in Buffer A (10 mM HEPES, pH 7.4, 250 mM KCl) supplemented with 25 µg/mL DNaseI, 25 µg/mL lysozyme, 1 mM phenylmethylsulfonyl fluoride (PMSF), and 20 mM imidazole. The homogenate was centrifuged at 12,000 × g for 45 min, and the supernatant was filtered through a syringe filter (0.22 µm).
(§2) Purified R12 domain protein from the three RyR isoforms, fused with hexahistidine-tagged MBP (HMT-R12) was dialyzed overnight at 4 °C in ITC buffer (200 mM HEPES, pH 7.4, 150 mM KCl). ITC experiments were performed using a PEAQ-ITC instrument (Malvern, UK) at 25 °C with a stirring speed of 750 rpm. […] For the ternary binding experiments, 500 μM or 5 mM AMP-PCP/ADP was preincubated with both the titrants and titrates. […] The data was fit to a one-site fitting model after background buffer subtraction. The RyR1 R12 mutants were generated using a QuikChange mutagenesis kit (Stratagene) according to the manufacturer’s protocol, with primer sequences listed in Supplementary Table 3.

R12 domain of RyR3 = biological target: T2, R12 domain of RyR3 (Homo sapiens, UniProt Q15413); assay: ITC, R12 domain of RyR3
T2 construct: RyR1 854–1054, RyR2 865–1065, RyR3 853–1053; made in house; host or cells: E. coli BL21 (DE3)
T2 sequence (Q15413 853-1053): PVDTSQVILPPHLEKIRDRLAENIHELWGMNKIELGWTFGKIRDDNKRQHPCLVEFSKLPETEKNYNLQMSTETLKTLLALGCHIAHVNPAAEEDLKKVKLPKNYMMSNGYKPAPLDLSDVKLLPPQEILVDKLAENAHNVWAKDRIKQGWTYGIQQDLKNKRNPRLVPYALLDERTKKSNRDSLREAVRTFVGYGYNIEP
Description: as §1, §2

R12 domain of RyR2 = biological target: T3, R12 domain of RyR2 (Homo sapiens, UniProt Q92736); assay: ITC, R12 domain of RyR2; details: absence or presence of AMP-PCP or ADP
T3 construct: RyR1 854–1054, RyR2 865–1065, RyR3 853–1053; made in house; host or cells: E. coli BL21 (DE3)
T3 sequence (Q92736 865-1065): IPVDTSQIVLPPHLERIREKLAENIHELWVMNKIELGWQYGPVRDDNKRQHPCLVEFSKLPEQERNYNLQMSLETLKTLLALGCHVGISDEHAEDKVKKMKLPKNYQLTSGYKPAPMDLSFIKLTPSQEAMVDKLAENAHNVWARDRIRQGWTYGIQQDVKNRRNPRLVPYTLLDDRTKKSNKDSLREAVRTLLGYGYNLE
Description: as §1, §2

With Nc1ncnc2c1ncn2[C@@H]1O[C@H](COP(=O)(O)OP(=O)(O)O)[C@@H](O)[C@H]1O [ADP] the “binding of nucleotide alone by ITC” value (R12 domain of RyR1) was “did not exhibit detectable binding”.

Nc1ncnc2c1ncn2[C@@H]1O[C@H](COP(=O)(O)OP(=O)(O)CP(=O)(O)O)[C@@H](O)[C@H]1O [AMP-PCP] was tested, and the “binding of nucleotide alone by ITC” value (R12 domain of RyR1) was “did not exhibit detectable binding”.

In the case of O=C1CN(/N=C/c2ccc(-c3ccc([N+](=O)[O-])cc3)o2)C(O)=N1 [DAN, Dantrolene], the Kd (R12 domain of RyR3; RyR3 R12 + 500 µM ADP) is reported as 0.259 ± 0.031 µM, the “No of Sites (N)” value (R12 domain of RyR3; RyR3 R12 + 500 µM ADP) is reported as 0.461 ± 0.26 and the ΔH (R12 domain of RyR3; RyR3 R12 + 500 µM ADP) is reported as -23.1 ± 1.42 kJ/mol. The “−TΔS” value (R12 domain of RyR3; RyR3 R12 + 500 µM ADP) was -14.5 kJ/mol, the Kd (R12 domain of RyR3; RyR3 R12 + 500 µM AMP-PCP) was 0.072 ± 0.02 µM and the “No of Sites (N)” value (R12 domain of RyR3; RyR3 R12 + 500 µM AMP-PCP) was 0.726 ± 0.53. For the same molecule, the ΔH (R12 domain of RyR3; RyR3 R12 + 500 µM AMP-PCP) was -36.1 ± 0.586 kJ/mol, the “−TΔS” value (R12 domain of RyR3; RyR3 R12 + 500 µM AMP-PCP) was -4.64 kJ/mol and the Kd (R12 domain of RyR3; RyR3 R12 + 5 mM ADP) was 0.06 ± 0.009 µM. For the same molecule, the “No of Sites (N)” value (R12 domain of RyR3; RyR3 R12 + 5 mM ADP) was 0.606 ± 0.23, the ΔH (R12 domain of RyR3; RyR3 R12 + 5 mM ADP) was -34.4 ± 3.14 kJ/mol and the “−TΔS” value (R12 domain of RyR3; RyR3 R12 + 5 mM ADP) was -6.86 kJ/mol. The Kd (R12 domain of RyR3; RyR3 R12 + 5 mM AMP-PCP) was 0.026 ± 0.01 µM, the “No of Sites (N)” value (R12 domain of RyR3; RyR3 R12 + 5 mM AMP-PCP) was 0.842 ± 0.36 and the ΔH (R12 domain of RyR3; RyR3 R12 + 5 mM AMP-PCP) was -33.8 ± 0.418 kJ/mol. The “−TΔS” value (R12 domain of RyR3; RyR3 R12 + 5 mM AMP-PCP) was -9.5 kJ/mol, the “No of Sites (N)” value (R12 domain of RyR3; RyR3 R12, no nucleotide) was 0.651 ± 0.11 and the ΔH (R12 domain of RyR3; RyR3 R12, no nucleotide) was -335 kJ/mol. For the same molecule, the “−TΔS” value (R12 domain of RyR3; RyR3 R12, no nucleotide) was 316.3 kJ/mol, the Kd (R12 domain of RyR3; RyR3 R12, no nucleotide, ITC 25 °C) was 235 ± 122 µM and the “binding to RyR2 R12 domain by ITC” value (R12 domain of RyR2) was “neither DAN nor AZU exhibited detectable binding”.
